Test results published in patent US20260347361A1, “LRRK2 INHIBITORS AND USES THEREOF” (NEURON23, INC, priority 2022, published 2026).
pIC50: −log10 of the molar value.

Target: T1, wt human LRRK2 (Homo sapiens, UniProt Q5S007)
T1 construct: wt human LRRK2, catalytic site, catalytic site (ThermoFisher/USA); purchased ThermoFisher
Assay: TR-FRET LanthaScreen Tb Kinase Activity Assay, inhibition of LRRK2 kinase
Format: biochemical
Conditions: 2 nM wt human LRRK2, 400 nM fluorescein-ERM (LRRKtide) peptide, 38 µM ATP, 15 min pre-incubation, 120 min at room temperature
Experimental: In Table 2, activity is provided as the following: “+++”=IC50 less than 50 nM; “++”=IC50 between 50 nM and 200 nM; “+”=IC50> or =200 nM.
The compounds listed in Table 2 were tested for their inhibitory effect on LRRK2 kinase according to the following procedures.
The protocol for basic TR-FRET LanthaScreen Tb Kinase Activity Assay inhibitor studies were as follows. LanthaScreen Kinase Activity Assays (ThermoFisher/USA) to evaluate inhibitors were performed by addition of 100 nl of test compound in corresponding DMSO dilutions/5 μl of kinase/fluorescein-ERM(LRRKtide) peptide mixture, Compound & kinase were pre-incubated for 15 minutes, then 5 μl of ATP into 384 well small volume plates. After incubation for 120 minutes at room temperature, the detection reagents containing Tb-anti-pLRRKtide antibody were added to monitor phosphorylation level of peptide. Then, after 60 min minutes incubation at room temperature plates were read in Envision. Data analysis of emission ratios was according to LanthaScreen Tb Kinase Activity Assay protocol.
Kinase and assay components were adjusted to final concentrations according to the kit protocol. For LRRK2: 2 nM wt human LRRK2, catalytic site, catalytic site (ThermoFisher/USA), 400 nM peptide, 38 µM ATP in 1× Kinase Buffer A.
Basic protocol for TR-FRET LanthaScreen Tb Kinase Activity Assay inhibitor studies involved two steps:
Enzymatic step: Addition of […] of test compound in corresponding DMSO dilutions, 5 μL of kinase/substrate mixture, 5 μL of ATP into 384 well small volume plates. Incubation for 120 minutes at room temperature.
Detection step: Addition of 10 μL EDTA & antibody, read plate after 60 minutes. Data analysis of emission ratios according to KinEASE assay protocol.
Kinase and assay components were adjusted to final concentrations according to the kit protocol.

T1 sequence (Q5S007 970-2527 limits assumed): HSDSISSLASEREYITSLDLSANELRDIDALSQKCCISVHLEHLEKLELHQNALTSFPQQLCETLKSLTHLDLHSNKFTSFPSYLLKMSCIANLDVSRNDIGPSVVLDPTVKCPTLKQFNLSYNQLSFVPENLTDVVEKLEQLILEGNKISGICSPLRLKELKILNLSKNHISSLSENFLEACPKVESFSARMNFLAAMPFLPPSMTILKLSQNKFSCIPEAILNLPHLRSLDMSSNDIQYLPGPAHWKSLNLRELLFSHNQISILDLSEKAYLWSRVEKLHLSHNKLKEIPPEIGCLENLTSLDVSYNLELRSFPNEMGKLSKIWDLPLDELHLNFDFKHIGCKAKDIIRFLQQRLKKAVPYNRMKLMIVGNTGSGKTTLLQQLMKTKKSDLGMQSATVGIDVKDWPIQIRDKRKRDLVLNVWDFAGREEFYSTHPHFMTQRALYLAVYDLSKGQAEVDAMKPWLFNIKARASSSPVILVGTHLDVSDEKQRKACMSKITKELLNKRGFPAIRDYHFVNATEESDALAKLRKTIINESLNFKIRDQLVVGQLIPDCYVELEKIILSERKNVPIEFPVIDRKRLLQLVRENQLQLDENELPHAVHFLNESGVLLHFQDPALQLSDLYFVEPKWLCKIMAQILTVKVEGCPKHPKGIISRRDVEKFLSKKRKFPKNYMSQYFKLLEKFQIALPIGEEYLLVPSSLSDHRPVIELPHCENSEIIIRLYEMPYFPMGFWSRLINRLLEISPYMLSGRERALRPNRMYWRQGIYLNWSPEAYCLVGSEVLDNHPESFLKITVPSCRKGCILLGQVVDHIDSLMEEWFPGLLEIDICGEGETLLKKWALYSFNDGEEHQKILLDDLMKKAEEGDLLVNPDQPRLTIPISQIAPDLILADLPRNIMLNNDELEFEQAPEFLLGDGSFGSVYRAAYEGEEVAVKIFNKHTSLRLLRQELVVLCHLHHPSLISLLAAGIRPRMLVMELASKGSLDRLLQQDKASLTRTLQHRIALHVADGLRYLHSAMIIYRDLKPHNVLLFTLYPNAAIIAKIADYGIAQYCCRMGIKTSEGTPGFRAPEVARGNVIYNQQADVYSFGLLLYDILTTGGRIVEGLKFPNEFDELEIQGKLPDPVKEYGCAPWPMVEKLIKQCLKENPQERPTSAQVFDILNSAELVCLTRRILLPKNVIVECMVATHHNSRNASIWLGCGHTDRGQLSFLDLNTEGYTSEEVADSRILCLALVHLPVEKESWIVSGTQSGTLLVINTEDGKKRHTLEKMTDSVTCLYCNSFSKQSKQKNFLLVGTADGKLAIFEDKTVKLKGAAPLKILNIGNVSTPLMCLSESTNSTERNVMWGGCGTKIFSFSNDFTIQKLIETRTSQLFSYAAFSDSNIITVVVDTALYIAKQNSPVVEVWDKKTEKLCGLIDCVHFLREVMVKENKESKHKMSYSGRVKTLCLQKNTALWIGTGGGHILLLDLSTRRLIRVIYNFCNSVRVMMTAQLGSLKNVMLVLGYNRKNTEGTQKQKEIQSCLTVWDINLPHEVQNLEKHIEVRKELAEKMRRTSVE

| SMILES | pIC50 |
| --- | --- |
| Fc1cccc(F)c1C1=Nc2c(Cl)cnn2-c2cc(N3CC4(CC(F)C4)C3)ccc2N1 [3-chloro-5-(2,6-difluorophenyl)-9-(6-fluoro-2-azaspiro[3.3]heptan-2-yl)-6H-pyrazolo[1,5-a][1,3,5]benzotriazepine] | > 7.30 |
| Fc1cccc(F)c1C1=Nc2c(Cl)cnn2-c2cc(N3CCCC3)ccc2N1 [3-chloro-5-(2,6-difluorophenyl)-9-(pyrrolidin-1-yl)-6H-benzo[f]pyrazolo[1,5-a][1,3,5]triazepine] | > 7.30 |
| Fc1cccc(F)c1C1=Nc2c(Cl)cnn2-c2cc(N3CC[C@@H](F)C3)ccc2N1 [3-chloro-5-(2,6-difluorophenyl)-9-[(3R)-3-fluoropyrrolidin-1-yl]-6H-pyrazolo[1,5-a][1,3,5]benzotriazepine] | > 7.30 |
| Fc1cccc(F)c1C1=Nc2c(Cl)cnn2-c2cc(N3CC[C@H](F)C3)ccc2N1 [3-chloro-5-(2,6-difluorophenyl)-9-[(3S)-3-fluoropyrrolidin-1-yl]-6H-pyrazolo[1,5-a][1,3,5]benzotriazepine] | > 7.30 |
| Fc1cccc(F)c1C1=Nc2c(Cl)cnn2-c2cc(N3CCNCC3)ccc2N1 [3-chloro-5-(2,6-difluorophenyl)-9-piperazin-1-yl-6H-pyrazolo[1,5-a][1,3,5]benzotriazepine] | > 7.30 |
| CN(C)C(=O)c1ccc2c(c1)-n1ncc(Cl)c1N=C(c1c(F)cccc1F)N2 [3-chloro-5-(2,6-difluorophenyl)-N,N-dimethyl-6H-pyrazolo[1,5-a][1,3,5]benzotriazepine-9-carboxamide] | 6.70 to 7.30 |
| O=C(NCCF)c1ccc2c(c1)-n1ncc(Cl)c1N=C(c1c(F)cccc1F)N2 [3-chloro-5-(2,6-difluorophenyl)-N-(2-fluoroethyl)-6H-pyrazolo[1,5-a][1,3,5]benzotriazepine-9-carboxamide] | > 7.30 |
| O=C(NCCO)c1ccc2c(c1)-n1ncc(Cl)c1N=C(c1c(F)cccc1F)N2 [3-chloro-5-(2,6-difluorophenyl)-N-(2-hydroxyethyl)-6H-pyrazolo[1,5-a][1,3,5]benzotriazepine-9-carboxamide] | > 7.30 |

Continued, values first:

| pIC50 | SMILES |
| --- | --- |
| > 7.30 | COCCNC(=O)c1ccc2c(c1)-n1ncc(Cl)c1N=C(c1c(F)cccc1F)N2 [3-chloro-5-(2,6-difluorophenyl)-N-(2-methoxyethyl)-6H-pyrazolo[1,5-a][1,3,5]benzotriazepine-9-carboxamide] |
| > 7.30 | O=C(NC1COC1)c1ccc2c(c1)-n1ncc(Cl)c1N=C(c1c(F)cccc1F)N2 [3-chloro-5-(2,6-difluorophenyl)-N-(oxetan-3-yl)-6H-benzo[f]pyrazolo[1,5-a][1,3,5]triazepine-9-carboxamide] |
| > 7.30 | CC(C)NC(=O)c1ccc2c(c1)-n1ncc(Cl)c1N=C(c1c(F)cccc1F)N2 [3-chloro-5-(2,6-difluorophenyl)-N-isopropyl-6H-pyrazolo[1,5-a][1,3,5]benzotriazepine-9-carboxamide] |
| > 7.30 | CONC(=O)c1ccc2c(c1)-n1ncc(Cl)c1N=C(c1c(F)cccc1F)N2 [3-chloro-5-(2,6-difluorophenyl)-N-methoxy-6H-pyrazolo[1,5-a][1,3,5]benzotriazepine-9-carboxamide] |
| > 7.30 | CNC(=O)c1ccc2c(c1)-n1ncc(Cl)c1N=C(c1c(F)cccc1F)N2 [3-chloro-5-(2,6-difluorophenyl)-N-methyl-6H-pyrazolo[1,5-a][1,3,5]benzotriazepine-9-carboxamide] |
| > 7.30 | Fc1cccc(F)c1C1=Nc2c(Cl)cnn2-c2cc(N3CCNC4(CC4)C3)ccc2N1 [3-chloro-9-(4,7-diazaspiro[2.5]octan-7-yl)-5-(2,6-difluorophenyl)-6H-pyrazolo[1,5-a][1,3,5]benzotriazepine] |
| > 7.30 | O=C(NCC1CC1)c1ccc2c(c1)-n1ncc(Cl)c1N=C(c1c(F)cccc1F)N2 [3-chloro-N-(cyclopropylmethyl)-5-(2,6-difluorophenyl)-6H-pyrazolo[1,5-a][1,3,5]benzotriazepine-9-carboxamide] |
